# From ChEMBL document CHEMBL4382196, “Unraveling the Prenylation-Cancer Paradox in Multiple Myeloma with Novel Geranylgeranyl Pyrophosphate Synthase (GGPPS) Inhibitors” (J Med Chem, 2018)
# Changes are numbered by the printed parent chain. Calls of active or inactive are those of the source. The rule behind the calls is not given here.
# Columns and labels:
# [1] = biological target: T1, Farnesyl pyrophosphate synthase (Homo sapiens) (UniProt P14324); assay: Inhibition of human FPPS at 1 uM using [14C]-IPP and […] after 10 mins by scintillation counting relative to control
# T1 sequence (whole entry): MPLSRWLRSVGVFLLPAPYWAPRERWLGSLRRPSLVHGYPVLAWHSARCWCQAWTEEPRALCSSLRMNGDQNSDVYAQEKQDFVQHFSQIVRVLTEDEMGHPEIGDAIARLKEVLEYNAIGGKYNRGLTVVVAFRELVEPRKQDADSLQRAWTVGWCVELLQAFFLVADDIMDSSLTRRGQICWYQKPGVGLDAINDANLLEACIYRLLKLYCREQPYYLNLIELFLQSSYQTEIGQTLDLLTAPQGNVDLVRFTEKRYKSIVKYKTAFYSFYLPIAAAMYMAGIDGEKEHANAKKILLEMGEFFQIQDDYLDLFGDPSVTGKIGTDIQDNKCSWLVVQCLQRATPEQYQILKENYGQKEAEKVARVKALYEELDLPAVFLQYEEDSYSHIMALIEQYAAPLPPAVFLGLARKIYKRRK
# [2] = biological target: T2, Geranylgeranyl pyrophosphate synthase (Homo sapiens, UniProt O95749)
# T2 sequence (O95749 whole entry): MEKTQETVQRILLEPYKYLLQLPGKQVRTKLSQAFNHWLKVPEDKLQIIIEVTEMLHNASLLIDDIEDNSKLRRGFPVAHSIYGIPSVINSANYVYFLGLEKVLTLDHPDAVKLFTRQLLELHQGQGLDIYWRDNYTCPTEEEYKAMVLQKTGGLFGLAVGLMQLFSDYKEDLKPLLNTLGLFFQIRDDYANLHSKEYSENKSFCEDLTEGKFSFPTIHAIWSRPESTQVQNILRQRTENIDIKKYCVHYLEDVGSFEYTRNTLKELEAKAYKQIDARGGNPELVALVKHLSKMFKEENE
# [3] = tested on: T3, Geranylgeranyl pyrophosphate synthase (Homo sapiens), O95749 [Y246D]; assay: Binding affinity to human N-terminal His6-tagged GGPPS Y246D mutant expressed in Escherichia coli BL21(DE3) assessed as enzyme-inhibitor complex formation by measuring thermal stability in presence of Mg2+ ions by differential scanning fluorimetry
# T3 sequence (whole entry): T2 sequence (O95749 whole entry) with Y246D
# [4] = biological target: T4, Farnesyl pyrophosphate synthase (Homo sapiens, UniProt P14324); assay: Inhibition of human FPPS using [14C]-IPP and […] after 10 mins by scintillation counting
# T4 sequence (P14324 whole entry): T1 sequence (whole entry)
# [5] = biological target: Geranylgeranyl pyrophosphate synthase (Homo sapiens, UniProt O95749, Y246D)
# Chain of Geranylgeranyl pyrophosphate synthase (Homo sapiens, UniProt O95749, Y246D) (O95749 whole entry Y246D): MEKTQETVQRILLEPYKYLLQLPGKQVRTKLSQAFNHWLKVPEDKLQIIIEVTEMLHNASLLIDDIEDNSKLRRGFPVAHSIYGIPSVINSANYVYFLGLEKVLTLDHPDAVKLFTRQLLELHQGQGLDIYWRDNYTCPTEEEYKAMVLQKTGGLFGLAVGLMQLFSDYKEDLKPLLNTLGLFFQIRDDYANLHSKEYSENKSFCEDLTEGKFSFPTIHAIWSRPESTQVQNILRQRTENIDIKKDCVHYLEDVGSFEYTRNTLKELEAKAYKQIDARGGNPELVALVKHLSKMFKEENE
# [6] = tested on: Hydroxyapatite; assay: Binding affinity to bone mineral hydroxyapatite at 50 uM by 1H NMR assay
# [7] = tested on: RPMI-8226; assay: cells; details: Homo sapiens, RPMI-8226, 72 h
# [8] = species on record: Homo sapiens; assay: Selectivity ratio of IC50 for human FPPS to IC50 for human N-terminal His6-tagged GGPPS
# [9] = biological target: T5, Geranylgeranyl pyrophosphate synthase (Homo sapiens) (UniProt O95749); assay: Inhibition of human N-terminal His6-tagged GGPPS expressed in Escherichia coli BL21(DE3) at 1 uM using [14C]-IPP and FPP as substrates after 10 mins by scintillation counting relative to control
# T5 sequence (whole entry): T2 sequence (O95749 whole entry)
# [10] = biological target: T1, Farnesyl pyrophosphate synthase (Homo sapiens); assay: Inhibition of human FPPS at 10 uM using [14C]-IPP and […] after 10 mins by scintillation counting
# [11] = tested on: RPMI-8226; assay: Antiproliferative activity against human RPMI8226 cells at 10 uM after 72 hrs by MTT assay; format: functional, cell-based
# [12] = biological target: T5, Geranylgeranyl pyrophosphate synthase (Homo sapiens); assay: Inhibition of human N-terminal His6-tagged GGPPS expressed in Escherichia coli BL21(DE3) at 10 uM using [14C]-IPP and FPP as substrates after 10 mins by scintillation counting
# [13] = tested on: RPMI-8226; assay: Induction of apoptosis in human RPMI8226 cells assessed as viable cells at 1 uM after 72 hrs by APC Annexin V/eFluor-780-viability double staining-based FACS analysis (reference value: 87.3%); format: functional; details: RPMI-8226, 72 h, read-out: Activity
# [14] = tested on: RPMI-8226; assay: Induction of apoptosis in human RPMI8226 cells assessed as early apoptotic cells at 1 uM after 72 hrs by APC Annexin V/eFluor-780-viability double staining-based FACS analysis (reference value: 3.31%); format: functional
# [15] = tested on: RPMI-8226; assay: Induction of apoptosis in human RPMI8226 cells assessed as necrotic cells at 1 uM after 72 hrs by APC Annexin V/eFluor-780-viability double staining-based FACS analysis (reference value: 3.60%); format: functional
# [16] = tested on: RPMI-8226; assay: Induction of apoptosis in human RPMI8226 cells assessed as late apoptotic cells at 1 uM after 72 hrs by APC Annexin V/eFluor-780-viability double staining-based FACS analysis (reference value: 5.80%); format: functional
structure (smiles),measurement,setting,value
O=C(Nc1cccc(-c2nc(NC(P(=O)(O)O)P(=O)(O)O)c3ccsc3n2)c1)c1ccc(F)cc1,inhibition,[1],20%
same,IC50,[2],42 nM
same,Activity,[3],Active
same,IC50,[4],> 1000 nM
O=C(Nc1ccccc1)c1cccc(-c2nc(NC(P(=O)(O)O)P(=O)(O)O)c3ccsc3n2)c1,IC50,[5],50 nM
same,IC50,[2],49 nM
same,Activity,[6],Active
same,EC50,[7],460 nM
O=C(Nc1cccc(-c2nc(NC(P(=O)(O)O)P(=O)(O)O)c3ccsc3n2)c1)c1ccccc1,IC50,[5],39 nM
same,EC50,[7],500 nM
same,Ratio IC50,[8],30
COc1ccc(C(=O)Nc2cccc(-c3nc(NC(P(=O)(O)O)P(=O)(O)O)c4ccsc4n3)c2)cc1,IC50,[5],92 nM
O=P(O)(O)C(Nc1ncnc2sccc12)P(=O)(O)O,inhibition,[1],70%
same,IC50,[2],> 1000 nM
same,inhibition,[9],40%
same,IC50,[4],800 nM
O=C(Nc1cccc(-c2cc3c(NC(P(=O)(O)O)P(=O)(O)O)ncnc3s2)c1)c1ccccc1,inhibition,[10],inactive
same,Activity,[11],inactive
same,inhibition,[12],inactive
O.O=P(O)(O)C(O)(Cn1ccnc1)P(=O)(O)O [ZOLEDRONIC ACID],viability at 1 µM,[13],85.9%
same,Activity,[6],Active
same,Activity,[14],2.55%
same,Activity,[15],5.04%
same,Activity,[16],6.53%
